Measured values from patent publication US20040067565A1, “Selective functionalization of hydrocarbons with isolated oxygenases and mediator based regeneration” (priority 2002, published 2004).

Molecular target: T1, Cytochrome C (cytC) (Equus caballus, UniProt P00004)
T1 construct: cytC- (from horse heart, Fluka, Buchs Switzerland); purchased Fluka, Buchs Switzerland; host or cells: horse heart
Test: [Cp*Rh(bpy)H]+ catalyzed, formate driven reduction of Cytochrome C (absorption at 550 nm)
Assay type: biochemical, horse
Details: for TF ([Cp*Rh(bpy)(H2O)]2+) / dc(CytC)red/dt: c(CytC) 31.2 μM, c(NaHCO2) 150 mM
Description: In a typical experiment potassium phosphate buffer (50 mM, pH 7.0, c(NaHCO2)=150 mM) is supplemented with cytC- (from horse heart, Fluka, Buchs Switzerland) and [Cp*Rh(bpy)(H2O)]^2+-stocksolutions to 1 ml final volume in a quartz kuvette and placed into a thermostatted (T=30° C.) UV-spectrophotometer (UNICAM). After addition of the components, the absorption at λ=550 nm is followed. Concentrations of reduced CytC were determined after background correction according to the law of Lamber-Beer utilizing a molar extinction coefficient for reduced CytC of […].
In another typical experiment, the reaction temperature was varied between 20 and 35° C.
To exclude stoichiometric interaction of [Cp*Rh(bpy)(H2O)]^2+ with cytC, in another experiment low c([Cp*Rh(bpy)(H2O)]^2+) were applied. In 50 ml degassed potassium phosphate buffer (50 mM, pH 7.0, c(NaHCO2)=150 mM) 10 μM ([Cp*Rh(bpy)(H2O)]^2+) were incubated with 80 μM cytC (FIG. 9).

[1] = T 20 °C, c([Cp*Rh(bpy)(H2O)]2+) 100 μM
[2] = T 30 °C, c([Cp*Rh(bpy)(H2O)]2+) 100 μM
[3] = T 35 °C, c([Cp*Rh(bpy)(H2O)]2+) 50 μM

T1 sequence (P00004 whole entry): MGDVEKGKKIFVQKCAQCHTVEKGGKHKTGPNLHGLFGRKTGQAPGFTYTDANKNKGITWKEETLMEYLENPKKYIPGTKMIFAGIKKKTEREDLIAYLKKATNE

`Cc1c(C)c(C)[c-](C)c1C.O.[Rh+3].c1ccc(-c2ccccn2)nc1` [[Cp*Rh(bpy)(H2O)]^2+] was tested, and the total turnover number (FIG. 9: 10 μM [Cp*Rh(bpy)(H2O)]2+, 80 μM cytC, 150 mM NaHCO2, 30 °C, degassed buffer, not optimized) was 6, the “TF ([Cp*Rh(bpy)(H2O)]2+)” value [1] was 4 h⁻¹ and the “dc(CytC)red/dt” value [1] was 0.4 mM * h^−. The “TF ([Cp*Rh(bpy)(H2O)]2+)” value [2] was 21 h⁻¹, the “dc(CytC)red/dt” value [2] was 2.1 mM * h^− and the “TF ([Cp*Rh(bpy)(H2O)]2+)” value [3] was 32 h⁻¹. For the same compound, the “dc(CytC)red/dt” value [3] was 1.6 mM * h^− and the “Turnover frequencies as CytC reduction catalyst” value (depend on the reaction temperature (20-35 °C)) was 4-32 turnovers per hour.
